Patent US10143686B2, “Oxidosqualene cyclase as a protein target for anticancer therapeutics” (The Curators of the University of Missouri, priority 2010, dated 2018)
Structures can show the parent of a compound that is named as a salt. Where two headings read alike, the source gives them in different places.

Key:
Assay type in all cases: cell-based
LoVo colon cancer cells = test: SRB cell viability assay, LoVo; details: Homo sapiens
Experimental: (§1) The effect of OSC inhibition was evaluated in additional cancer cell lines as well. Cancer cell lines may be purchased from ATCC (Manassas, Va.). The SRB assay has been employed for determination of the inhibitory effects of RO 48-8071 on growth of different cancer cells. Cells were seeded into 96-well plates and incubated overnight at 37° C. with 5% CO2. The culture medium was removed after 24 hours, and cells were washed with DMEM/F12 medium and then treated with various concentrations of RO 48-8071 in 5% FBS culture medium for 24 and 48 hours. Surviving or adherent cells were fixed in situ by withdrawing the growth medium, adding 100 μl PBS and 100 μl 50% trichloroacetic acid and then incubating at 4° C. for one hour. Cells were washed with ice-cold water, dried at room temperature (RT), and then stained with 50 μl 4% SRB for eight minutes at RT. Unbound dye was removed by washing with cold 1% acetic acid for five times, and plates were dried at RT. Bound stain was solubilized with 150 μl 10 mM Tris buffer and absorbance of samples was read at 520 nm with a SpecTRA MAX 190 microplate reader (Molecular Devices, Sunnyvale, Calif.). Six wells were used for each concentration, and each experiment was performed two to three times.
Effect of RO 48-8071 on colon cancer cell LoVo viability. […] The culture mediums employed 10% FBS F-12K for culture and 5% FBS F-12K for treatment.

[1] = system: LNCaP prostate cancer cells; test: SRB cell viability assay, LNCaP; details: Homo sapiens
Experimental: as §1
Effect of RO 48-8071 prostate cancer cell line LNCaP viability. […] The culture mediums employed 20% FBS RPMI-1640 for culture and 10% FBS RPMI-1640 for treatment.

[2] = system: normal mammary AG11132A cells; test: SRB cell viability assay, normal mammary cells; details: 24 hours, FIG. 3
Experimental: The sulforhodamine B (SRB) assay was employed to evaluate the effect of OSC inhibitor Ro 48-8071 on viability of breast cancer and normal mammary gland cells with slight modification of the original procedure established at NCI. Accordingly, the cells were seeded in 96-well plates in 100 μl culture medium and incubated overnight at 37° C. with 5% CO2. […] The surviving or adherent cells were fixed in situ by withdrawing the growth medium and adding 100 μl of PBS and 100 μl of 50% cold trichloroacetic acid and then incubating at 4° C. for 1 h. The surviving cells were washed with ice-water, dried at room temperature (RT), and then stained with 50 μl 4% SRB for 8 min at RT. Unbound dye was removed by washing 5 times with cold 1% acetic acid, and the plates were dried at RT. Bound stain was solubilized with 150 μl 10 mM Tris buffer, and absorbance of samples were measured at 520 nm with a SpecTRA MAX 190 microplate reader (Sunnyvale, Calif.). In these experiments on BT-474, T47-D, and AG11132A cell lines, six wells were used for each concentration, and each experiment was performed at least twice.

[3] = system: MDA-231 breast cancer cells; test: SRB cell viability assay, MDA-231; details: Homo sapiens, MDA-MB-231, MDA-231, Breast (triple negative)
Experimental: as §1
Effect of RO 48-8071 on estrogen, progesterone, and HER-2/neu receptors negative breast cancer cell line MDA-231 and BT-20 viability. […]

[4] = 24 hours, read-out: IC50 (μM) (24 hours)
[5] = 48 hours, read-out: IC50 (μM) (48 hours)

C=CCN(C)CCCCCCOc1ccc(C(=O)c2ccc(Br)cc2)c(F)c1 [Ro 48-8071, 4′-[6-(Allylmethylamino)hexyloxy]-4-bromo-2′-fluorobenzophenone fumarate]
IC50 (LoVo colon cancer cells; [4]): 9.461 ± 0.07 µM
IC50 (LoVo colon cancer cells; [5]): 3.27 ± 0.541 µM
IC50 [1, 4]: 18.1 ± 3.22 µM
IC50 [1, 5]: 11.8 ± 0.431 µM
inhibition of normal mammary cell viability compared with BT-474 [2]: significantly less inhibition
IC50 [3, 4]: 15 ± 0.482 µM
IC50 [3, 5]: 10.7 ± 0.276 µM
